The record followed here is patent US7279465B2, “Use of amphiphilic nucleoside phosphonoformic acid derivatives for the treatment of viral infectious diseases” (Eberhard-Karls-Universitaet, priority 2002, dated 2007).

For series [1], the system named is multiresistant HCMV strain (GCV/PFA/CDV-resistant). As to the kind of experiment: Modified cell-adapted plaque reduction assay (HFF cocultures), multiresistant HCMV strain. Type of series: cell-based, human cytomegalovirus (HCMV). The note with it: for average plaque numbers: 1500 HCMV-infected HFF cells/microculture, multiresistant strain. An excerpt: (§1) Cocultures of infected and uninfected human foreskin fibroblasts (HFFs) were used for this purpose.
(§2) The implementation of the assay was described for the first time in Prix, et al., “A simplified assay for screening of drug resistance of cell-associated cytomegalovirus strains,” Journal of Clinical Virology (1998) 11:29-37, and Prix, et al., “Comprehensive restriction analysis of the UL97 region allows early detection of ganciclovir-resistant human cytomegalovirus in an immunocompromised child,” Journal of Infectious Diseases (1999) 180:491-495, and is briefly described below.
(§3) HCMV primary isolates on HFF cells in tube culture were passaged on subconfluent monolayers of HFF grown in small cell culture flasks (25 cm^2), and cultured. When an approx. 20-40% cytopathic effect (CPE) had been reached, the cells were washed with phosphate-buffered saline (PBS) and the monolayer was removed by trypsinization. After the trypsin had been inactivated, the pellet was taken up in Eagle's minimal essential medium (MEM)-10% FCS (foetal calf serum) and subjected to mild filtration for the purpose of separating off cell aggregates.
(§4) In parallel, uninfected HFF cells were cultured on 175 cm^2 dishes, washed, trypsinized and, after further purification steps, taken up in MEM-10% FCS.
[…] In each case 100 μl of each of these dilution steps were pipetted in triplicate into a 96-well microtitre plate. In order to ensure that the cells adhered to the microtitre plate bottom, the cocultures were incubated for at least 4 h before the medium was carefully removed. […]
The primary antibody (anti-IE1-pp72, E13 clone, Paesel & Lorei, Germany), which is directed against the HCMV immediate early antigen (UL123) of HCMV, was then added. […] After the peroxidase/H2O2 substrate had been added, the HCMV immediate early antigen was detected, under a microscope, in the nuclei of the infected fibroblasts as a result of the in situ brown staining. […]

The test system of series [2] is HCMV. Kind of series: Preliminary screening of antiviral effect in vitro. Type of series: cell-based, human cytomegalovirus (HCMV). The conditions noted are these: compared with unesterified compound.
Series [3] deals with GCV-resistant/PFA-sensitive HCMV strain. As to the kind of experiment: microbe, parasite or virus in culture. The note with it: for average plaque numbers/microculture: GCV-resistant, PFA/CDV-sensitive strain. Type of series: cell-based, human cytomegalovirus (HCMV).
Source text: as §1, §2, §3, §4
In order to prepare cocultures, the infected cells were mixed with the uninfected cells in the following manner: 2.5×10^4 uninfected cells/100 μl were mixed, in two different ratios, with 500 and 1000 infected cells/100 μl. In each case 100 μl of each of these dilution steps were pipetted in triplicate into a 96-well microtitre plate. In order to ensure that the cells adhered to the microtitre plate bottom, the cocultures were incubated for at least 4 h before the medium was carefully removed.
The cultures were then incubated for 4 days so as to enable the viruses from the infected single cells to spread in the form of plaque formation by infecting the neighbouring cells.
Following the 4-day incubation, the medium was carefully poured off and the microcultures were permeabilized, and fixed, with 200 μl of ice-cold (−20° C.) methanol. After 20 min, the methanol was removed and the cells were washed twice with PBS.
The primary antibody (anti-IE1-pp72, E13 clone, Paesel & Lorei, Germany), which is directed against the HCMV immediate early antigen (UL123) of HCMV, was then added. […] After the peroxidase/H2O2 substrate had been added, the HCMV immediate early antigen was detected, under a microscope, in the nuclei of the infected fibroblasts as a result of the in situ brown staining.
6.25 μM of the structurally identical, ethyl-esterified compound N4 were also included.
In this experiment, 500 HCMV-infected HFF cells/microculture were used.
For correctly evaluating the plates, the norm was applied that a plaque had to consist of a group of cells containing at least 10 individual cells in order to be included in the count.

The subject of series [4] is human prepuce fibroblasts. As to the kind of experiment: Cytotoxic effect in vitro towards fibroblasts. Type of series: cell-based. How it is done: Since N3 was determined to have a cytotoxic effect in vitro towards human prepuce fibroblasts only at concentrations of >125 μM, adequate therapeutic breadth for in vivo use consequently also exists.

pIC50: −log10 of the molar value. Values joined by “and” are separate entries in the source; they are usually repeats but may differ in a detail not shown here. Equal values may be shown once. Read-outs that look alike come from different tables or passages of the source.

For the compound “ethyl 3′-azido-2′,3′-dideoxythymidylyl-(5′→2)-1-O-octadecyl-rac-glycerol-3-(hydroxycarbonyl)-phosphonate [N4]”, the “antiviral activity against multiresistant strains” value in series [1] (multiresistant strains) is “did not exhibit any antiviral activity”. Moreover, the “antiviral effect in vitro” value in series [2] was “markedly reduced antiviral effect”.

In turn, `O=C(O)P(=O)(O)O.[Na]` [PFA, sodium-phosphonoformic acid, reference compound] had a number of plaques in series [3] (300 μM PFA, 500 HCMV-infected HFF cells/microculture, negative control 37.9) of 5. Further, the pIC50 in series [3] (Human betaherpesvirus 5, read-out: ID50 (95% CI)) is 4.19. Also, the average plaque numbers in series [1] (PFA (300 μM recorded)) was 20.5.

For `Nc1nc2c(ncn2COC(CO)CO)c(=O)[nH]1` [GCV, 9-[1,3-dihydroxy-2-propoxymethyl]guanine, reference compound], the average plaque numbers/microculture in series [3] (5 μM GCV, 500 HCMV-infected HFF cells/microculture) is 19.5. Further, the pIC50 in series [3] (Human betaherpesvirus 5, Table 1, GCVres/PFAsens/CDVsens strain, Niz = 1000 infected cells/microculture, read-out: ID50 (95% CI)) was 4.84.

Take “3′-azido-2′,3′-dideoxythymidylyl-(5′→2)-1-O-octadecyl-rac-glycerol-3-(hydroxycarbonyl)-phosphonate [N3]”: the average plaque numbers/microculture in series [3] (6.25 μM N3, 500 HCMV-infected HFF cells/microculture) is 5.7 and 7.5. Also, the “ID50 lower than that for GCV (fold)” value in series [3] (GCV-resistant strain, 1000 infected cells/microculture) is “approx. 11 ×”. For the same compound, the “antiviral activity higher than that of PFA (fold)” value in series [3] (GCV-resistant/PFA-sensitive strain, 1000 infected HFF cells/microculture) is “approx. 40 ×”. Besides, the “concentration with cytotoxic effect in vitro” value in series [4] is above 125 µM. In series [1] (N3 (6.25 μM recorded)), this compound gave an average plaque numbers of 2.3.
